Test results as given in the supplement of paper PMC4862054.

Key:
[1] = tested on: CAL-120; test: normalised viability (% of control), CellTiter-Blue; higher = more viable cells (about 100 = DMSO control); settings: incubation time: 72 h
Method: (§1)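 DSRT, CellTiter-Blue viability, 72 h incubation. Signal is normalised to DMSO and benzethonium chloride controls. Value is the normalised response at dose 3.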

[2] = tested on: MDA-MB-231; test: as above; settings: incubation time: 72 h
Method: as §1

[3] = tested on: BT-549; test: as above; settings: incubation time: 72 h
Method: as §1

[4] = tested on: HCC1937; test: as above; settings: incubation time: 72 h
Method: as §1

[5] = tested on: HCC1599; test: as above; settings: incubation time: 72 h
Method: as §1

[6] = tested on: Hs578T; test: as above; settings: incubation time: 72 h
Method: as §1

[7] = tested on: SK-BR-3; test: as above; settings: incubation time: 72 h
Method: as §1

[8] = tested on: CAL-85-1; test: as above; settings: incubation time: 72 h
Method: as §1

[9] = tested on: MDA-MB-468; test: as above; settings: incubation time: 72 h
Method: as §1

[10] = tested on: MFM-223; test: as above; settings: incubation time: 72 h
Method: as §1

[11] = tested on: DU-4475; test: as above; settings: incubation time: 72 h
Method: as §1

[12] = tested on: CAL-148; test: as above; settings: incubation time: 72 h
Method: as §1

[13] = tested on: MDA-MB-436; test: as above; settings: incubation time: 72 h
Method: as §1

[14] = tested on: MDA-MB-453; test: as above; settings: incubation time: 72 h
Method: as §1

[15] = tested on: CAL-51; test: as above; settings: incubation time: 72 h
Method: as §1

[16] = tested on: BT-474; test: as above; settings: incubation time: 72 h
Method: as §1

[17] = tested on: HCC1143; test: as above; settings: incubation time: 72 h
Method: as §1

[18] = tested on: HDQ-P1; test: as above; settings: incubation time: 72 h
Method: as §1

[19] = tested on: CAL-148; settings: 72 h
Summary of the method: (§2)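 Viability of breast cancer cell lines was measured with CellTiter-Blue after 72 h of incubation on compound-loaded 384-well plates. Cells were seeded in 20 µl onto compound dissolved in 5 µl medium, and 2.5 µl reagent was added for 2 h at 37 °C before reading at 560/590 nm. EC50 was fitted from percent-inhibition dose-response data censored at the highest concentration, normalised per plate to vehicle and a positive kill control, with zero drug sensitivity score rows dropped.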

[20] = tested on: CAL-51; settings: 72 h
Summary of the method: as §2

[21] = tested on: MDA-MB-231; test: normalised viability (% of control), CellTiter-Blue; higher = more viable cells (about 100 = DMSO control); settings: incubation time: 72 h; remark: listed apart in the source
Summary of the method: (§3)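 Compound dissolved in 5 µl medium was pre-loaded into 384-well plates, and breast cancer cell lines in 20 µl suspension were seeded on top and incubated 72 h. After adding 2.5 µl CellTiter-Blue reagent for 2 h at 37 °C, fluorescence was read at 560/590 nm. Plates were normalised to vehicle (100) and a positive kill control (0), with Z'-factor quality control. Each value is normalised viability at a single listed concentration from the series.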

[22] = tested on: CAL-85-1; test: as above; settings: incubation time: 72 h; remark: listed apart in the source
Summary of the method: as §3

[23] = tested on: MFM-223; test: as above; settings: incubation time: 72 h; remark: listed apart in the source
Summary of the method: as §3

[24] = tested on: DU-4475; test: as above; settings: incubation time: 72 h; remark: listed apart in the source
Summary of the method: as §3

[25] = tested on: MDA-MB-436; test: as above; settings: incubation time: 72 h; remark: listed apart in the source
Summary of the method: as §3

[26] = tested on: MDA-MB-453; test: as above; settings: incubation time: 72 h; remark: listed apart in the source
Summary of the method: as §3

[27] = tested on: CAL-51; test: as above; settings: incubation time: 72 h; remark: listed apart in the source
Summary of the method: as §3

[28] = tested on: BT-474; test: as above; settings: incubation time: 72 h; remark: listed apart in the source
Summary of the method: as §3

COc1cccc2cc(-c3nc([C@H]4CC[C@H](C(=O)O)CC4)n4ncnc(N)c34)[nH]c12 [OSI-027]
Settings	normalised viability [%]
[1], 100 nM	91.9
[2], 100 nM	72.1
[3], 100 nM	71.9
[4], 100 nM	84
[5], 100 nM	88.9
[6], 100 nM	84.1
[7], 100 nM	48.6
[8], 10 nM	92.8
[9], 100 nM	84.4
[10], 100 nM	73.7
[11], 10 nM	105
[12], 10 nM	92.6
[13], 100 nM	74.1
[14], 10 nM	80.9
[15], 10 nM	95.4
[16], 100 nM	95.1
[17], 100 nM	119
[18], 10 nM	78.5
[21], 10 nM	87.4
[21], 1000 nM	69.4
[21], 10000 nM	25.9
[22], 3 nM	95.4
[22], 30 nM	83.2
[22], 100 nM	100
[23], 10 nM	101
[23], 1000 nM	34.9
[23], 10000 nM	16
[24], 3 nM	96.6
[24], 30 nM	92.5
[24], 100 nM	82.5
[25], 10 nM	76.6
[25], 1000 nM	56.4
[25], 10000 nM	31.6
[26], 3 nM	79
[26], 30 nM	88.2
[26], 100 nM	71.6
[27], 3 nM	97.3
[27], 30 nM	93.8
[27], 100 nM	84.6
[28], 10 nM	106
[28], 1000 nM	54.2
[28], 10000 nM	25.9

Settings	EC50, CellTiter-Blue viability [nM]
[19]	1640
[20]	1580

C=CCNC1=C2C[C@@H](C)C[C@H](OC)[C@H](O)[C@@H](C)/C=C(\C)[C@H](OC(N)=O)[C@@H](OC)/C=C\C=C(/C)C(=O)NC(=CC1=O)C2=O [Tanespimycin]
Settings	normalised viability [%]
[1], 100 nM	72.7
[2], 100 nM	114
[3], 100 nM	32.9
[4], 100 nM	37.3
[5], 100 nM	61.2
[6], 100 nM	50.2
[7], 100 nM	16.5
[8], 10 nM	98.4
[9], 100 nM	109
[10], 100 nM	29.2
[11], 10 nM	106
[12], 10 nM	94
[13], 100 nM	26.3
[14], 10 nM	81
[15], 10 nM	118
[16], 100 nM	35.3
[17], 100 nM	33.4
[18], 10 nM	93.5
[21], 10 nM	92.5
[21], 1000 nM	49.4
[21], 10000 nM	28.1
[22], 3 nM	91.5
[22], 30 nM	86.5
[22], 100 nM	82.4
[23], 10 nM	73.6
[23], 1000 nM	23.9
[23], 10000 nM	17.6
[24], 3 nM	104
[24], 30 nM	83.3
[24], 100 nM	2.97
[25], 10 nM	88.8
[25], 1000 nM	24.9
[25], 10000 nM	17.5
[26], 3 nM	121
[26], 30 nM	11.4
[26], 100 nM	7.8
[27], 3 nM	118
[27], 30 nM	108
[27], 100 nM	81.9
[28], 10 nM	104
[28], 1000 nM	28.4
[28], 10000 nM	23.9

Settings	EC50, CellTiter-Blue viability [nM]
[19]	65.9
[20]	269

CO[C@H]1C[C@@H]2CC[C@@H](C)[C@@](O)(O2)C(=O)C(=O)N2CCCC[C@H]2C(=O)O[C@H]([C@H](C)C[C@@H]2CC[C@@H](OC(=O)C(C)(CO)CO)[C@H](OC)C2)CC(=O)[C@H](C)/C=C(\C)[C@@H](O)[C@@H](OC)C(=O)[C@H](C)C[C@H](C)/C=C/C=C/C=C/1C [Temsirolimus]
Settings	normalised viability [%]
[1], 10 nM	55.8
[2], 10 nM	68
[3], 10 nM	68.2
[4], 10 nM	56.5
[5], 10 nM	90.8
[6], 10 nM	50.2
[7], 10 nM	50.5
[8], 1 nM	65.7
[9], 10 nM	68.3
[10], 10 nM	49.8
[11], 1 nM	89.8
[12], 1 nM	54.5
[13], 10 nM	85.8
[14], 1 nM	32
[15], 1 nM	73.9
[16], 10 nM	69.3
[17], 10 nM	77.1
[18], 1 nM	90.9
[21], 1 nM	73.4
[21], 100 nM	75.1
[21], 1000 nM	78.4
[22], 0.3 nM	69.3
[22], 3 nM	58.9
[22], 10 nM	60.7
[23], 1 nM	58.1
[23], 100 nM	50.5
[23], 1000 nM	41
[24], 0.3 nM	95.3
[24], 3 nM	66.6
[24], 10 nM	60.2
[25], 1 nM	81.8
[25], 100 nM	80.6
[25], 1000 nM	69.5
[26], 0.3 nM	73.5
[26], 3 nM	26.1
[26], 10 nM	27.1
[27], 0.3 nM	89.4
[27], 3 nM	55.5
[27], 10 nM	37.5
[28], 1 nM	80
[28], 100 nM	58.6
[28], 1000 nM	66.2

Settings	EC50, CellTiter-Blue viability [nM]
[19]	0.47
[20]	1.36

CC[C@]1(O)C[C@@H]2CN(CCc3c([nH]c4ccccc34)[C@@](C(=O)OC)(c3cc4c(cc3OC)N(C)[C@H]3[C@@](O)(C(=O)OC)[C@H](OC(C)=O)[C@]5(CC)C=CCN6CC[C@]43[C@@H]65)C2)C1 [Vinblastine]
Settings	normalised viability [%]
[1], 10 nM	19.1
[2], 10 nM	20.1
[3], 10 nM	26.3
[4], 10 nM	20.6
[5], 10 nM	107
[6], 10 nM	14.7
[7], 10 nM	13
[8], 1 nM	101
[9], 10 nM	39.3
[10], 10 nM	76.7
[11], 1 nM	102
[12], 1 nM	107
[13], 10 nM	51.5
[14], 1 nM	98.4
[15], 1 nM	114
[16], 10 nM	49.7
[17], 10 nM	40.6
[18], 1 nM	106
[21], 1 nM	70
[21], 100 nM	13.4
[21], 1000 nM	12
[22], 0.3 nM	89.9
[22], 3 nM	94.9
[22], 10 nM	48.3
[23], 1 nM	96.7
[23], 100 nM	43.9
[23], 1000 nM	24.9
[24], 0.3 nM	105
[24], 3 nM	96.5
[24], 10 nM	82.9
[25], 1 nM	93
[25], 100 nM	28.8
[25], 1000 nM	37
[26], 0.3 nM	115
[26], 3 nM	99.8
[26], 10 nM	36.8
[27], 0.3 nM	108
[27], 3 nM	106
[27], 10 nM	96.4
[28], 1 nM	51.8
[28], 100 nM	54.2
[28], 1000 nM	52.7

Settings	EC50, CellTiter-Blue viability [nM]
[19]	13.2
[20]	26.5
